Measured values: patent US6136845A (The Texas A&M University System, priority 1998, dated 2000)
Where two headings read alike, the source gives them in different places.

Columns and labels:
mammary tumor [1] = conditions: cited from earlier work
rat uterus = conditions: immature female rat uterus; result in words; cited from earlier work
CYP1A1 [2] = conditions: cited from earlier work; for ED50 for induction of hepatic CYP1A1-dependent activity: 6-i-propyl value estimated
liver = conditions: result in words; cited from earlier work
CYP1A1 [3] = conditions: result in words; cited from earlier work
mammary tumor [4] = conditions: rodent models; cited from earlier work
[5] = tested on: 17β-estradiol (E2)-induced responses; conditions: rats, mice; cited from earlier work
[6] = tested on: MCF-7 human breast cancer cell lines; conditions: MCF-7 cells in culture; cited from earlier work
ER = conditions: 21 to 25 day-old female Sprague-Dawley rat uterus; cited from earlier work
PR = conditions: 21 to 25 day-old female Sprague-Dawley rat uterus; cited from earlier work
[7] = in vivo; cited from earlier work
mammary tumors = experiment: DMBA-induced rat mammary tumor model, tumor volume and weight; assay type: in vivo, Sprague-Dawley rat; conditions: 20 days
Description: Female virgin Sprague-Dawley rats were obtained from Harlan (Houston) and were allowed to acclimate for 10 days, allowed access to food and water ad libitum, and maintained on a 12 h light/dark schedule. Mammary tumors were induced in 50±3 day old-rats by administering a single gavage dose of 20 mg DMBA in 0.5 ml corn oil. […] Tumor sizes were measured with calipers, and volumes were calculated by formula (length×width×depth)/6π and are expressed as percent control. […] All tumors were removed, weighed, and sectioned. One portion was frozen in liquid nitrogen for PCR analysis; one portion was placed in 10% formalin for histopathological analysis; and the majority was immediately homogenized for the preparation of microsomal and cytosolic fractions. Livers were perfused and weighed, and cytosol and microsomes were prepared as previously described.

[8] = Body and organ weights in DMBA-treated rats
Description: Female virgin Sprague-Dawley rats were obtained from Harlan (Houston) and were allowed to acclimate for 10 days, allowed access to food and water ad libitum, and maintained on a 12 h light/dark schedule. Mammary tumors were induced in 50±3 day old-rats by administering a single gavage dose of 20 mg DMBA in 0.5 ml corn oil. […] Tumor sizes were measured with calipers, and volumes were calculated by formula (length×width×depth)/6π and are expressed as percent control. One week after their last injection, rats were euthanized by asphyxiation. All tumors were removed, weighed, and sectioned. One portion was frozen in liquid nitrogen for PCR analysis; one portion was placed in 10% formalin for histopathological analysis; and the majority was immediately homogenized for the preparation of microsomal and cytosolic fractions. Livers were perfused and weighed, and cytosol and microsomes were prepared as previously described.

femurs = experiment: Bone effects in ovariectomized rats (femur weight and length); assay type: in vivo, Sprague-Dawley rat; conditions: tamoxifen 0.4, 6-MCDF 0.8 mg/kg/day oral, 20 days
Description: The ovariectomized rat is used as a model for osteoporosis.
Rats were euthanized on day 21. After uteri were excised and processed, both left and right femurs were excised and the length measured with calipers. […] Wet weight was measured after residual connective tissue was stripped away. Dry weight was measured after the bones were dried for 12 ours at 130° C.

uterus [9] = experiment: Uterine wet weight in ovariectomized rats (Example 4); assay type: in vivo, Sprague-Dawley rat; conditions: 0.4 mg/kg/day each oral, 20 days
Source text: (§2) Methods: Rats were ovariectomized at 97 days of age, and treatments began at 117 days of age. […] Rats were euthanized on day 21.

uterine peroxidase [10] = experiment: Uterine peroxidase assay in ovariectomized rats (Example 4); assay type: in vivo, Sprague-Dawley rat; conditions: 0.4 mg/kg/day each oral, 20 days
Source text: (§1) Rats were euthanized on day 21.

uterine cytosolic PR = experiment: Uterine cytosolic PR levels in ovariectomized rats (Example 4); assay type: in vivo, Sprague-Dawley rat; conditions: 0.4 mg/kg/day each oral, 20 days
Source text: as §1

uterus [11] = experiment: Uterine wet weight in ovariectomized rats (Example 6, Table 6); assay type: in vivo, Sprague-Dawley rat; conditions: tamoxifen 0.4, 6-MCDF 0.8 mg/kg/day oral, 20 days
Source text: as §1

uterine peroxidase [12] = experiment: Uterine peroxidase activity in ovariectomized rats (Example 6, Table 6); assay type: in vivo, Sprague-Dawley rat; conditions: tamoxifen 0.4, 6-MCDF 0.8 mg/kg/day oral, 20 days
Source text: as §1

[13] = tested on: uterine progesterone receptor; experiment: Uterine progesterone receptor in ovariectomized rats (Example 6, Table 6); assay type: in vivo, Sprague-Dawley rat; conditions: tamoxifen 0.4, 6-MCDF 0.8 mg/kg/day oral, 20 days
Source text: as §1

bone tissue = conditions: cited from earlier work
endometrial tumor = conditions: cited from earlier work
uterus [14] = conditions: cited from earlier work
[15] = Body and organ weights (Examples 4 and 5)
Description: as §2
For the control vehicle and the MCDF vehicle ethanol was added (5% v/v) and then evaporated away.

[16] = Body and organ weights (Example 6, Table 7)
Description: For Table 7 and FIGS. 3 and 3B, exact aged virgin female Sprague-Dawley rats were dosed on day 55 in the afternoon with 20 mg/rat 7,12-dimethylbenz[a]anthacene in a volume of 0.5 ml/rat corn oil (rats weigh approximately 165 g, resulting in 120 mg/kg DMBA and 3 ml/kg corn oil).

[17] = each drug 0.4 mg/kg/day by gavage, DMBA rats

## Clc1cc(Cl)c2c(c1)oc1c(C3CCCCC3)cc(Cl)cc12 [6-CHDF, 6-cyclohexyl-1,3,8-triCDF]
Mammary tumor [1]; 5 mg/kg/wk, result in words
  antitumorigenic activity: inactive

## CC(C)c1cc(Cl)cc2c1oc1cc(Cl)cc(Cl)c12 [6-i-propyl-1,3,8-triCDF]
Rat uterus
  ED50 values for antiestrogenicity: similar
CYP1A1 [2]; rat, high ratio indicates low toxicity and high antiestrogenic potency
  ED50 (CYP1A1 induction)/ED50 (antiestrogenicity) ratio: 13,990-17,100

## Cc1cc(Cl)cc2c1oc1c(Cl)c(Cl)c(Cl)cc12 [6-methyl-2,3,4,8-tetraCDF, 6-methyl-2,3,4,8-tetrachlorodibenzofuran]
Rat uterus
  ED50 values for antiestrogenicity: similar
CYP1A1 [2]; rat
  ED50 for induction of hepatic CYP1A1-dependent activity: 8.52 mmol/kg

## Cc1cc(Cl)c2oc3cc(Cl)cc(Cl)c3c2c1 [8-MCDF, 8-methyl-1,3,6-trichlorodibenzofuran]
Mammary tumor [1]; 5 mg/kg/wk
  growth inhibition: > 50%
Mammary tumor [1]; 5, 10 or 25 mg/kg/wk, result in words
  mammary tumor growth: significantly inhibited
liver
  liver morphology: not accompanied by any significant changes
  liver/body weight ratios: not accompanied by any significant changes
CYP1A1 [3]
  induction of hepatic CYP1A1-dependent activity: not accompanied by any significant changes

## Cc1cc2c(cc1Cl)oc1c(Cl)c(Cl)c(Cl)cc12 [8-methyl-2,3,4,7-tetraCDF]
Rat uterus
  ED50 values for antiestrogenicity: similar
CYP1A1 [2]; rat
  ED50 for induction of hepatic CYP1A1-dependent activity: 5.31 mmol/kg

## Clc1cc2c(cc1Cl)Oc1cc(Cl)c(Cl)cc1O2 [TCDD, 2,3,7,8-tetrachlorodibenzo-p-dioxin, reference compound]
Mammary tumor [4]
  mammary tumor growth: inhibit mammary tumor growth
[5]
  antiestrogenic activity: effective antiestrogen
[6]
  antiestrogenic activity: effective antiestrogen
ER
  nuclear and cytosolic ER binding: dose-dependent decrease
PR
  nuclear and cytosolic progesterone receptor (PR) binding: dose-dependent decrease
[7]
  hepatocarcinogenicity: too hepatocarcinogenic
CYP1A1 [2]; result in words
  induction of CYP1A1: induces toxic and biochemical responses

## CC/C(=C(\c1ccccc1)c1ccc(OCCN(C)C)cc1)c1ccccc1 [tamoxifen, reference compound]
Mammary tumors; 0.4 mg/kg/day each, control 100 ± 27.7
  Tumor Wt (% Control): 61.5 ± 30.4 % Control
Mammary tumors; 0.4 mg/kg/day each, control 100 ± 31.5
  Final Tumor Volume (% Control): 41.5 ± 20 % Control
Mammary tumors; 0.4 mg/kg/day each, control 2734 ± 956
  Final Tumor Volume: 1135 ± 587 mm^3
Mammary tumors; [17]
  % Inhibition tumor volume: 58.5%
  % Inhibition tumor weight: NS decrease
[8]; 0.4 mg/kg/day each, 20 days, control 0.212 ± 0.017
  Uterine Wt.: 0.142 ± 0.006 % BW
[8]; 0.4 mg/kg/day each, 20 days, control 0.257 ± .022
  Spleen Wt.: 0.236 ± 0.019 % BW
[8]; 0.4 mg/kg/day each, 20 days, control 0.349 ± 0.007
  Kidney weight: 0.386 ± 0.012 % BW
[8]; 0.4 mg/kg/day each, 20 days, control 3.13 ± 0.12
  Liver weight: 3.64 ± 0.18 % BW
[8]; 0.4 mg/kg/day each, 20 days, control 250 ± 5
  Final Body Weight: 243 ± 4 g
[8]; rat, in vivo
  Heart weight: 0.420 ± 0.018 % BW
femurs; control 0.180 ± 0.005
  Dry bone weight: 0.216 ± 0.005 % body weight
femurs; control 0.347 ± 0.009
  Wet bone weight: 0.403 ± 0.007 % body weight
Uterus [9]; control 0.045 ± 0.002
  Uterine Wet Weight (% body wt): 0.085 ± 0.004 % body wt
Uterus [9]; control 0.131 ± 0.006
  Uterine Wet Weight: 0.211 ± 0.011 g
Uterine peroxidase [10]; per g uterus
  Uterine Peroxidase Assay (Abs/g uterus): 17.7 ± 0.45 Fold Increase over Control
Uterine peroxidase [10]; per mg protein
  Uterine Peroxidase Assay (Abs/mg protein): 17.5 ± 0.60 Fold Increase over Control
Uterine peroxidase [10]; per uterus
  Uterine Peroxidase Assay (Abs/uterus): 28.41 ± 0.73 Fold Increase over Control
Uterine cytosolic PR; control 308 ± 142
  Uterine cytosolic PR levels (fmol/mg protein): 674 ± 52 fmol/mg protein
Uterine cytosolic PR; control 1100 ± 508
  Uterine cytosolic PR levels (fmol/uterus): 4501 ± 350 fmol/uterus
Uterine cytosolic PR; control 8368 ± 3868
  Uterine cytosolic PR levels (fmol/g uterus): 21301 ± 1655 fmol/g uterus
Uterus [11]; control 0.0583 ± 0.0055
  Uterine wet weight (% body weight): 0.0857 ± 0.0036 % body weight
Uterus [11]; control 0.171 ± 0.15
  Uterine wet weight: 0.208 ± 0.009 g
Uterine peroxidase [12]; per g uterus
  Uterine Peroxidase Activity (Absorbance/g uterus): 31.94 ± 0.26 Fold Increase over control
Uterine peroxidase [12]; per mg protein
  Uterine Peroxidase Activity (Absorbance/mg protein): 26.76 ± 0.22 Fold Increase over control
Uterine peroxidase [12]; per uterus
  Uterine Peroxidase Activity (Absorbance/uterus): 38.66 ± 0.32 Fold Increase over control
[13]; control 198 ± 15
  Uterine Progesterone Receptor (fmol/mg protein): 790 ± 21 fmol/mg protein
[13]; control 765 ± 69
  Uterine Progesterone Receptor (fmol/uterus): 9062 ± 244 fmol/uterus
[13]; control 4462 ± 343
  Uterine Progesterone Receptor (fmol/g uterus): 43666 ± 1175 fmol/g uterus
Bone tissue; cycling rats (Takahashi et al. 1996)
  effect in bone: no effect
Bone tissue; ovariectomized rats (Turner et al. 1987)
  effect in bone tissue: acted as an estrogen agonist
Endometrial tumor; 2843 patients, 20 mg/day (Fisher et al. 1994)
  risk for endometrial tumor formation: 7.5 fold
Endometrial tumor; Danish trial, 30 mg/day for one year
  risk for endometrial tumors: 3.3 fold
Endometrial tumor; Scottish and Manchester England trials, 20 mg/day
  risk for endometrial tumors: no increased risk
Endometrial tumor; South-Swedish trial, 30 mg/day for one year
  risk for endometrial tumors: 2.0 fold
Endometrial tumor; Stockholm trial, 40 mg/day for 2 years
  risk for endometrial tumors: approximately 6 fold
Endometrial tumor; women, breast cancer treatment, result in words
  risk/incidence of endometrial cancer: Risk of endometrial cancer increases
Uterus [14]; most animal models
  uterine hyperplasia: induced uterine hyperplasia
Uterus [14]; rat, result in words
  rat uterine wet weight: significant dose dependent increases
[15]; Table 5, baseline, control 273.1 ± 8.1
  Rat weight at start of treatments: 275.7 ± 7.6 g
[15]; Table 5, control 0.247 ± 0.007
  Spleen wet weight (% body wt): 0.252 ± .008 % body wt
[15]; Table 5, control 0.318 ± 0.010
  kidney weight (% body wt): 0.334 ± 0.008 % body wt
[15]; Table 5, control 0.319 ± 0.006
  Heart weight (% body wt): 0.346 ± 0.005 % body wt
[15]; Table 5, control 0.72O ± 0.012
  Spleen wet weight: 0.631 ± 0.037 g
[15]; Table 5, control 0.933 ± 0.038
  Kidney weight: 0.837 ± 0.045 g
[15]; Table 5, control 0.935 ± 0.039
  Heart weight: 0.864 ± 0.031 g
[15]; Table 5, control 4.06 ± 0.23
  Liver weight (% body wt): 4.26 ± 0.26 % body wt
[15]; Table 5, control 11.88 ± 0.78
  Liver weight: 10.70 ± 0.92 g
[15]; Table 5, control 293.2 ± 10.9
  Rat weight prior to euthanasia: 249.8 ± 7.6 g
[16]; Table 7, baseline, control 255 ± 3
  Rat weight at start of treatments: 261 ± 9 g
[16]; Table 7, control 0.289 ± 0.018
  Spleen weight (% body weight): 0.254 ± 0.018 % body weight
[16]; Table 7, control 0.334 ± 0.010
  Kidney weight (% body weight): 0.369 ± 0.017 % body weight
[16]; Table 7, control 0.360 ± 0.010
  Heart weight (% body weight): 0.357 ± 0.023 % body weight
[16]; Table 7, control 295 ± 11
  Rat weight prior to euthanasia: 242 ± 6 g
